Reference: US9907790B2, “Solid forms of an ASK1 inhibitor” (Gilead Sciences, Inc., priority 2014, dated 2018)

experiment: Stable form screen of Compound I (suspension in solvents at RT, solids analysed by XRPD); type: physicochemical; settings: starting from Compound I Form I, suspended in DCM at RT
Method: Compound I Form I was suspended with stirring in capped glass vials at RT. Samples from the suspensions were centrifuged/filtered and the isolated solids and liquids were analyzed. Solids were analyzed by XRPD and liquids were analyzed for solubility by […]. Sampling and analysis were performed after one day and greater than fourteen days.

**Q.** Which “14+ Day XRPD” value does the source give for Cc1cc(F)c(C(=O)Nc2cccc(-c3nncn3C(C)C)n2)cc1-n1cnc(C2CC2)c1 [Compound I Form I, 5-(4-cyclopropyl-1H-imidazol-1-yl)-N-(6-(4-isopropyl-4H-1,2,4-triazol-3-yl)pyridin-2-yl)-2-fluoro-4-methylbenzamide] here?
**A.** mixture of Compound I Form II and Compound I Form V

**Q.** What about the “24 Hour XRPD” value of the same compound?
**A.** mixture of Forms II and V

experiment: High humidity stress test at 75% RH/RT; type: physicochemical; settings: not given

**Q.** With “5-(4-cyclopropyl-1H-imidazol-1-yl)-N-(6-(4-isopropyl-4H-1,2,4-triazol-3-yl)pyridin-2-yl)-2-fluoro-4-methylbenzamide edisylate [Compound I Edisylate Form I]” as the compound, how does the “deliquescence in high humidity stress test” value (shortened to “deliquescence”) read?
**A.** did not show any evidence of deliquescence

**Q.** With “5-(4-cyclopropyl-1H-imidazol-1-yl)-N-(6-(4-isopropyl-4H-1,2,4-triazol-3-yl)pyridin-2-yl)-2-fluoro-4-methylbenzamide gentisate [Compound I Gentisate Form II]” as the compound, how does the “deliquescence” value read?
**A.** did not show any evidence of deliquescence

**Q.** Which “deliquescence” value does the source give for “5-(4-cyclopropyl-1H-imidazol-1-yl)-N-(6-(4-isopropyl-4H-1,2,4-triazol-3-yl)pyridin-2-yl)-2-fluoro-4-methylbenzamide glutarate [Compound I Glutarate Form I]” here?
**A.** did not show any evidence of deliquescence

**Q.** With “5-(4-cyclopropyl-1H-imidazol-1-yl)-N-(6-(4-isopropyl-4H-1,2,4-triazol-3-yl)pyridin-2-yl)-2-fluoro-4-methylbenzamide propyl gallate [Compound I Propyl Gallate Form I]” as the compound, how does the “deliquescence” value read?
**A.** did not show any evidence of deliquescence

**Q.** For CCS(=O)(=O)O.Cc1cc(F)c(C(=O)Nc2cccc(-c3nncn3C(C)C)n2)cc1-n1cnc(C2CC2)c1 [Compound I Esylate Form I, 5-(4-cyclopropyl-1H-imidazol-1-yl)-N-(6-(4-isopropyl-4H-1,2,4-triazol-3-yl)pyridin-2-yl)-2-fluoro-4-methylbenzamide esylate], which “deliquescence” value is on record?
**A.** did not show any evidence of deliquescence

**Q.** With Cc1cc(F)c(C(=O)Nc2cccc(-c3nncn3C(C)C)n2)cc1-n1cnc(C2CC2)c1.O=C(O)/C=C/C(=O)O [Compound I Fumarate Form I, 5-(4-cyclopropyl-1H-imidazol-1-yl)-N-(6-(4-isopropyl-4H-1,2,4-triazol-3-yl)pyridin-2-yl)-2-fluoro-4-methylbenzamide fumarate] as the compound, how does the “deliquescence” value read?
**A.** did not show any evidence of deliquescence

**Q.** With Cc1cc(F)c(C(=O)Nc2cccc(-c3nncn3C(C)C)n2)cc1-n1cnc(C2CC2)c1.O=C(O)CO [Compound I Glycolate Form I, 5-(4-cyclopropyl-1H-imidazol-1-yl)-N-(6-(4-isopropyl-4H-1,2,4-triazol-3-yl)pyridin-2-yl)-2-fluoro-4-methylbenzamide glycolate] as the compound, how does the “deliquescence” value read?
**A.** did not show any evidence of deliquescence

**Q.** Which “deliquescence” value does the source give for Cc1cc(F)c(C(=O)Nc2cccc(-c3nncn3C(C)C)n2)cc1-n1cnc(C2CC2)c1.Cl [Compound I HCl Form I, 5-(4-cyclopropyl-1H-imidazol-1-yl)-N-(6-(4-isopropyl-4H-1,2,4-triazol-3-yl)pyridin-2-yl)-2-fluoro-4-methylbenzamide hydrochloride] here?
**A.** did not show any evidence of deliquescence

**Q.** With Cc1cc(F)c(C(=O)Nc2cccc(-c3nncn3C(C)C)n2)cc1-n1cnc(C2CC2)c1.O=C(O)C(O)C(O)C(=O)O [Compound I L-Tartrate Form I, 5-(4-cyclopropyl-1H-imidazol-1-yl)-N-(6-(4-isopropyl-4H-1,2,4-triazol-3-yl)pyridin-2-yl)-2-fluoro-4-methylbenzamide L-tartrate] as the compound, how does the “deliquescence” value read?
**A.** did not show any evidence of deliquescence
